Data: ChEMBL document CHEMBL1122381, “Synthesis and antitumor activity of 7- and 9-(6'-deoxy-alpha-L-talofuranosyl) hypoxanthine and 9-(6'-deoxy-alpha-L-talofuranosyl)-6-thiopurine” (1983)
Active and inactive are the calls of the source. The calls are words filed in the database; no cut-off is given here.

What was measured:
[1] = target: T1, Purine nucleoside phosphorylase (Bos taurus) (UniProt P55859); test: Antitumor activity by inhibiting purine nucleoside phosphorylase (PNPase) enzyme; NA means inactive.
T1 sequence (whole entry): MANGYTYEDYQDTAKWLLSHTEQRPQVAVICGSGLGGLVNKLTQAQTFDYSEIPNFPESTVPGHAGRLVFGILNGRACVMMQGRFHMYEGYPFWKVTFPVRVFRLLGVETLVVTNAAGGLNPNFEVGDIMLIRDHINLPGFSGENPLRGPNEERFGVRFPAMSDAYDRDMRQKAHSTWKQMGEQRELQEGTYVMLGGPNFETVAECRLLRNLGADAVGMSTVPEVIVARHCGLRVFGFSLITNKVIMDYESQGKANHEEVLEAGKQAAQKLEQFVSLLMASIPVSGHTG

L1210 [2] = test: Antitumor activity against L1210 tumor cells tested in vivo; NA means inactive.; assay type: functional, organism-based; settings: Mus musculus
L1210 [3] = test: Antitumor activity against L1210 tumor cells in vivo and the value is expressed as T / C ([…]) at a dose of 10000 ug/kg; assay type: functional, Mus musculus
L1210 [4] = test: Antitumor activity against L1210 tumor cell growth in vitro and the value is expressed as % inhibition at a dose of 1 ug/mL; assay type: functional; settings: Mus musculus

Row | inhibition [1] | SMILES | T/C (L1210 [2]) | T/C (L1210 [3]) | inhibition at 1 µg/mL (L1210 [4]) [%]
1 | inactive | CC(O)[C@H]1O[C@@H](n2cnc3c(O)ncnc32)[C@H](O)[C@@H]1O (stereo not given in full) |  |  | 
2 |  | CC(O)[C@H]1O[C@@H](n2cnc3ncnc(O)c32)[C@H](O)[C@@H]1O (stereo not given in full) | inactive |  | 
3 | inactive | CC(O)[C@H]1O[C@@H](n2cnc3c(S)ncnc32)[C@H](O)[C@@H]1O (stereo not given in full) |  | 146 | 50
